The values below come from US20090123389A1, “Methods for modulating Th17 cell development in the treatment and prevention of cellulite” (priority 2007, published 2009).

One data set has as its system RORγt. Briefly: RORγt expression (real-time PCR) and RORγt retroviral transduction. Type of data set: cell-based, mouse. Particulars: 10 nM HF. The protocol: T cells were harvested at the indicated times following activation, RNA was isolated and quantitative real-time PCR was performed using RORγt-specific primers and taqman probe. RORγt expression was normalized to Gapdh levels, and the data are presented as fold changes relative to naïve T cells.
Infected T cells were expanded and restimulated on day 4 for intracellular staining. MIG- and MIG.RORγt-transduced cells were gated based on GFP fluorescence.
FIG. 16C is a graph depicting the percent of Th17 cells (IL-17^+ IFNγ^−) in cultures of MIG-transduced (black bars) or MIG.RORγt-transduced (white bars) T cells as determined by intracellular cytokine staining were normalized to DMSO-treated cultures. The data are presented as mean values±SD on duplicate samples. […]
Quantitative real-time PCR: T cells were activated as described above, collected at the indicated times and pellets were flash-frozen in liquid nitrogen. […] RORγt expression was determined after reverse transcription using the message sensor kit (Ambion, Austin, Tex.) per manufacturers instructions and taqman primers and probe as described elsewhere (I. Ivanov, et al., Cell 126, 1121, 2006). Sybrgreen quantitative real-time PCR was performed on T cell RNA samples following reverse transcription via SuperScript II first-strand cDNA synthesis kit (Invitrogen, Carlsbad, Calif.). […]

For data set [1] the following is noted: cited from earlier work.
For another data set, the system named is CD4+ CD25− T cells. The experiment in a line: CD4+ T cell proliferation, CD25 upregulation, cytokine production, Th1/Th2/iTreg differentiation. The data set is classed as cell-based, mouse. To be noted: for concentration causing general inhibition of T and B cell activation, proliferation and effector function: CD4+ T cells, CD8+ T cells, B220+ B cells. The protocol:
The dose-response of HF on CD4+ T cell proliferation, activation (i.e. CD25 upregulation) and differentiation to Th1, Th2 and Th17 lineages were evaluated. Purified murine naïve CD4+ CD25− T cells were activated using anti-CD3 (0.3 μg/ml) and anti-CD28 (0.5 μg/ml) antibodies and varying amounts of HF was added to each T cell culture condition (1.25 nM-40 nM). CD4+ T cell proliferation was monitored by CFSE dilution on day 3-post activation and CD25 expression was evaluated by FACS staining 2 days after activation. For T cell differentiation experiments, naïve T cells were activated as above in the presence of Th1 (IL-12 (20 ng/ml) plus anti-IL-4 (1.5 μg/ml)), Th2 (IL-4 (50 ng/ml) plus anti-IFNγ (0.5 mg/ml)) or Th17 (TGFβ (3 ng/ml) plus IL-6 (30 ng/ml)) polarizing conditions plus titrating amounts of HF (1.25 nM-40 nM) or MAZ1310 (40 nM). The percentage of Th17 cells, (IL-17^+ IFNγ^−) was evaluated on day 3 following activation, whereas the abundance of Th1 cells (IFNγ^+ IL-4) and Th2 cells (IL-4^+ IFNγ^−) was determined 5 days following activation. All cytokine expression was determined by intracellular staining following PMA+Ionomycin+Brefeldin A re-stimulation and all data was normalized to control (MAZ1310)-treated cells. […] Biol., vol. 80:1-8 (2006).
Cytokines, antibodies and T cell culture: Purified CD4^+ CD25^− T cells were activated in vitro as previously described (I. M. Djuretic et al., Nat Immunol 8, 145 (2007)) using 0.3 μg/ml hamster anti-mouse CD3 (clone 145-2C11) (ATCC—Manassas, Va.) and 0.5 μg/ml hamster anti-mouse CD28 (BD Pharmingen, San Jose, Calif.). Activated cell cultures were differentiated using the following combinations of cytokines and antibodies: iTreg=recombinant human TGFβ1 (3 ng/ml; R&D systems, Minneapolis, Minn.), Th17=TGFβ1 (3 ng/ml) plus recombinant mouse IL-6 (30 ng/ml, R&D systems). Th1 and Th2 differentiation was performed as previously described. (I. M. Djuretic et al., Nat Immunol 8, 145 (2007)). Human IL-2 supernatant (National Cancer Institute) was used in culture at 0.01 U/ml and was added at 48 hours-post activation when T cells were split into tissue culture wells lacking CD3 and CD28 antibodies, with the exception of Th17 cultures that were maintained in the absence of IL-2. All reagents were added at the time of T cell activation and again at 48-hours post activation unless indicated otherwise. For some experiments, purified CD4^+ CD25^− T cells, CD8^+ T cells or B cells were labeled with 1 μM CFSE (Invitrogen) prior to activation in accordance with manufacturers instructions.
Detection of cytokine production: Cytokines secreted into media supernatant were measured using the mouse Th1/Th2 cytometric bead array (CBA, BD Pharmingen) in accordance with manufacturers instructions. Briefly, CD4^+ CD25^− T cells were activated in anti-CD3/anti-CD28-coated tissue culture wells and supernatants were collected at the indicated times. For detection of intracellular cytokines in murine cells, cultured T or B cells were stimulated with 10 nM PMA (Sigma) and […] (Sigma) for 4-5 hours in the presence of […] (Sigma). Stimulated cells were harvested, washed with PBS and fixed with PBS plus 4% paraformaldehyde at room temperature for 20 minutes. […]

In data set [2] the test system is unfolded protein response (Xbp-1 splicing). The experiment in a line: Xbp-1 splicing / ER stress response in activated T cells.
For a further data set, the system named is mTOR. Briefly: Signaling downstream of mTOR in fibroblasts. The data set is classed as cell-based.

Structures are written as SMILES. Where “and” joins values, the source holds several entries; their conditions need not be identical. Equal entries are not always repeated. Where only a bound is given, the exact number is not on record here.

`O=C(CC1NCCCC1O)Cn1cnc2cc(Br)c(Cl)cc2c1=O` (racemic) [HF, 7-bromo-6-chloro-3-[3-(3-hydroxy-2-piperidinyl)-2-oxopropyl]-4(3H)-quinazolinone]: the “upregulation of RORγt or RORγ during Th17 differentiation” value in the data set on RORγt is “did not interfere”. In addition, the peak plasma concentration in data set [1] (oral 3.5 mg/day) is 3 ng/ml and ~8 nM. In data set [1] (oral), the “dose at which dose limiting toxicity (nausea and vomiting) occurred” value is on record as 3.5 mg/day; the “recommended tolerated dose for chronic treatment” value is listed as 0.5 mg/day. For the same compound, the “concentration causing general inhibition of T and B cell activation, proliferation and effector function” value with CD4+ CD25− T cells was over 20 nM. Moreover, in the data set on CD4+ CD25− T cells (listed as halofuginone), the “concentration causing general inhibition of T and B cell activation, proliferation and effector function” value lay within 20 to 40 nM. Also, in the data set on CD4+ CD25− T cells (low concentrations of HF (1-10 nM)), the “T cell proliferation, CD25 upregulation or production of IL-2, TNF or IFNγ” value was “did not affect”. Further, in the data set with CD4+ CD25− T cells (low-dose HF), the “Th1, Th2 or iTreg differentiation (IFNγ, IL-4 or Foxp3 expression)” value is “failed to modulate”. The “expression of hallmark ER stress response genes (GRP78/BiP, calreticulin and others)” value in data set [2] is “did not induce”. In addition, the Xbp-1 splicing result in data set [2] (tunicamycin 1 μg/ml or 10 nM HF, 4 hours) is “without promoting Xbp-1 splicing”. The “signaling downstream of mTOR in fibroblasts” value in the data set with mTOR is listed as “did not inhibit”.
